{
  "source": "patent EP4124338A1",
  "about": "“SIGMA-1 RECEPTOR ACTIVATOR FOR USE IN THE TREATMENT OF A PATHOLOGY ASSOCIATED WITH WFS1 MUTATION” (Université de Montpellier, priority 2021, dated 2023)",
  "key": {"Wfs1^ΔExon8 mice [1]": {"tested_on": "Wfs1^ΔExon8 mice", "test": "Place learning in the water-maze (spatial reference memory)", "format": "in vivo", "method": "(§1) Drugs and administration procedures: 2-(4-morpholinethyl)-1-phenylcyclohexanecarboxylate hydrochloride (PRE-084) was from Sigma-Aldrich (Saint-Quentin-Fallavier, France). […]\nPlace learning in the water-maze: Spatial reference memory was analyzed using a water-maze procedure. A transparent Plexiglas non-slippery platform (Ø 10 cm) was immersed in a circular pool (Ø 140 cm, height 40 cm), under the water surface during acquisition. The water temperature, 23 ± 1°C, light intensity, external cues in the room, and water opacity were rigorously reproduced. Swimming was videotracked (Viewpoint), with trajectories being analyzed as latencies and distances. The software divided the pool into four quadrants. Training consisted in three swims per day for 6 days, with 15 min intertrial-time interval. Start positions, set at each limit between quadrants, were randomly selected and each mouse was allowed a 90 s swim to find the platform, initially placed in the NE quadrant. […] The median latency and swim path length were calculated for each training day. Acquisition slopes were also calculated individually over the acquisition period. Forty-eight hours after the last swim, on day 7, a probe test was performed during which the platform was removed and each animal allowed a free 60 s swim. The time spent in the training (T) quadrant and the average of time spent in the 3 others (o) were determined. On days 8, mice were re-tested in the water-maze for assessing visual ability and non-spatial learning. They were submitted to the acquisition of a visible platform placed in a new location, with training consisting in three swims per day with 15 min intertrial-time interval. Swimming was analyzed as latencies. No exclusion criterion has been set in this test."}, "Wfs1^ΔExon8 mice [2]": {"tested_on": "Wfs1^ΔExon8 mice", "test": "Object recognition test (short-term recognition memory)", "format": "in vivo", "conditions": "male Wfs1^ΔExon8 mice", "excerpt": "as §1\nObject recognition test: The test measures short-term recognition memory. The apparatus consisted in four squared open-fields (50 cm × 50 cm × 50 cm high) made in white Plexiglas and placed on a floor equipped with infrared (IR) light emitting diodes. The locomotor activity of the animal and position of their nose could be captured through an IR-sensitive camera and analyzed using the Videotrack® and Nosetrack® softwares (Viewpoint). Session 1: animals were allowed to acclimate during 10 min to the open-field. The mouse locomotion was analyzed by videotracking. […] Each mouse was placed in the open-field and the exploratory activity and nose position was recorded during 10 min. The activity was analyzed by videotracking in terms of number of contacts with the objects and duration of contacts. […] Each mouse was placed again in the open-field and the exploratory activity recorded during 10 min. The activity was analyzed similarly. The preferential exploration index was calculated as the ratio of the number of contacts with the object in position 2 over the total number of contacts with the two objects. […]"}, "Wfs1^ΔExon8 mice [3]": {"tested_on": "Wfs1^ΔExon8 mice", "test": "Spontaneous alternation in the Y-maze (spatial working memory)", "format": "in vivo", "conditions": "male Wfs1^ΔExon8 mice; PRE-084 0.3 mg/kg ip (legend b25; b84 says 1 mg/Kg) 30 min before the Y-maze session; Fig. 2", "excerpt": "as §1\nSpontaneous alternation in the Y-maze: The test assesses spatial working memory. The maze was made of grey polyvinylchloride. Each arm was 40 cm long, 13 cm high, 3 cm wide at the bottom, 10 cm wide at the top, and converging at an equal angle. Each mouse was placed at the end of one arm and allowed to move freely through the maze during an 8 min session. The series of arm entries, including possible returns into the same arm, was recorded visually. An alternation was defined as entries into all three arms on consecutive occasions. The number of maximum alternations was therefore the total number of arm entries minus two and the percentage of alternation was calculated as (actual alternations/maximum alternations) × 100. […] Thirteen animals were discarded accordingly corresponding to 26% attrition. […]"}, "Wfs1^ΔExon8 mice [4]": {"tested_on": "Wfs1^ΔExon8 mice", "test": "Elevated plus-maze test (anxiety)", "format": "in vivo", "conditions": "female Wfs1^ΔExon8 mice, 0.3 mg/kg ip 30 min before", "excerpt": "as §1\nElevated plus-maze test: The apparatus consisted of two open arms (24 × 8 cm^2), in white PVC, and two enclosed arms (24 × 8 × 20 cm^3), in dark grey PVC. The arms extended from a central platform (8 × 8 cm), and the maze was elevated to a height of 50 cm above the floor. Each mouse was placed at the centre of the plus-maze and its exploration behaviour was recorded during 10 min. The time spent and numbers of entries into the enclosed or open arms were recorded. Results were expressed as total number of entries into the arms, time spent in the open arms, time spent per visit in the open arms.\n(§2) Experimental series: For phenotyping, animals were tested in series in the different behavioral tests assessing activity, learning and memory or anxiety, finishing with the most stressful procedures: (1) open-field (1 day), (2) spontaneous alternation (1 day), (3) object recognition (2 days), (4) place learning in the water-maze water-maze (5+2 days), (5) passive avoidance (2 days), (6) elevated plus-maze (1 day), and (7) black-and-white box exploration (1 day), in that order and over 16 days. For PRE-084 treatment experiments, animals were tested in series on a limited number of tests: spontaneous alternation (1 day), object recognition (2 days) and passive avoidance (2 days) for males, elevated plus-maze (1 day) and black-and-white box (1 day) for females."}, "Wfs1^ΔExon8 mice [5]": {"tested_on": "Wfs1^ΔExon8 mice", "test": "Black-and-white exploration box test (anxiety)", "format": "in vivo", "conditions": "female Wfs1^ΔExon8 mice, 0.3 mg/kg ip 30 min before", "excerpt": "as §1\nBlack-and-white exploration box test: Anxiety level of WFS1 KO mice was first examined using the black-and-white exploration box. It consisted of two adjacent compartments (23 × 16 × 10 cm^3) separated by a small opening (6 × 6 cm^2). The light compartment is brightly lit from above and covered with a transparent lid, and the dark compartment is covered with a black lid. Mice were placed in the light box, and exploration measured during 10 min by IR videotracking (Viewpoint). The time spent in each compartment and number of crossings among compartments were recorded. The time in the light compartment per visit was calculated. […] Seven animals were discarded accordingly corresponding to 14% attrition.\nas §2"}, "Wfs1^ΔExon8 mice [6]": {"tested_on": "Wfs1^ΔExon8 mice", "test": "Step-through type passive avoidance test (non-spatial long-term memory)", "format": "in vivo", "conditions": "male Wfs1^ΔExon8 mice, 0.3 mg/kg ip 30 min before training, retention", "excerpt": "as §1\nStep-through type passive avoidance test: The test measures non-spatial long-term memory. The apparatus is a two-compartments (15 × 20 × 15 cm high) box with one illuminated with white polyvinylchloride walls and the other darkened with black polyvinylchloride walls and a grid floor. A guillotine door separates each compartment. A 60 W lamp positioned 40 cm above the apparatus lights up the white compartment during the experiment. Scrambled foot shocks (0.3 mA for 3 s) could be delivered to the grid floor using a shock generator scrambler (Lafayette Instruments, Lafayette, USA). The guillotine door was initially closed during the training session. Each mouse was placed into the white compartment. After 5 s, the door was raised. […] The step-through latency, that is, the latency spent to enter the darkened compartment, and the shock sensitivity (estimated as 0 = no reaction, 1 = flinching reactions, 2 = flinchings and vocalizations) were recorded. […] The step-through latency and escape latency (corresponding to the time spent to exit the dark compartment) were recorded up to 300 s each. […]"}, "Wfs1ab^KO larvae": {"tested_on": "Wfs1ab^KO larvae", "test": "Visual Motor Response (VMR), locomotor activity of larvae during light OFF periods", "format": "in vivo, zebrafish", "conditions": "Fig. 9", "method": "Zebrafish Generation: All experiments were performed in accordance with the 2010/63/EU Directive and the ARRIVE guidelines. Zebrafish were purchased at the KIT - European Zebrafish Resource Center. Heterozygous Wfs1a^C799X and Wfs1b^W493X mutant line were maintained in an automated fish tank system (ZebTEC, Tecniplast) at 28°C, pH 7, conductivity around 500 µS and with a 14h:10h light:dark cycle. They were fed with standard diet. Heterozygous Wfs1a^C799X/+ zebrafish were crossed to generate wild-type (Wfs1a^WT) and homozygous mutant Wfs1a^C799X zebrafish (Wfs1a^C799X), which became progenitors in order to generate future generations for the experiments. […]\nVisual Motor Response (VMR): The VMR assay quantifies the locomotor activity of zebrafish larvae to light changes using infrared tracking system. […] At 5-dpf, the locomotor behavior of larvae was monitored by using an automated videotracking device (Zebrabox®, ViewPoint) by employing a DinionXF 1/3-inch Monochrome camera (model BFLY-PGE-13H2M, FLIR) fitted with a fixed-angle megapixel lens (SR5014MP-5C, SEIKO Optical). […] The floor of the box emitted by a light-controlling unit a white light (69-83 µW/cm2 measured at 495 λ). The response to stimuli was recorded by an infra-red (IR) camera (25 frames/s) under IR light illumination at 850 nm, which the animals could not perceive. […] The distance covered was measured in mm/s. […]"}},
  "note": "Structures can show the parent of a compound that is named as a salt.",
  "data": [
    {"smiles": "O=C(OCCN1CCOCC1)C1(c2ccccc2)CCCCC1", "note": "[PRE-084, 2-(4-morpholinethyl)-1-phenylcyclohexanecarboxylate hydrochloride]", "values": [
      {"measurement": "acquisition slopes", "setting": "Wfs1^ΔExon8 mice [1]; male Wfs1^ΔExon8 mice, compared to V-treated Wfs1^WT mice, Fig. 4c", "result": "only vehicle (V)-treated Wfs1^ΔExon8 mice showed a statistically significant decrease"},
      {"measurement": "delay in acquisition / swimming latencies", "setting": "Wfs1^ΔExon8 mice [1]; male Wfs1^ΔExon8 mice, daily injection 0.3 mg/kg ip 30 min before 1st swim of each training trial, Fig. 4b", "result": "prevented this delay and significantly decreased swimming latencies during the two last trials"},
      {"measurement": "probe test, exploration of the T quadrant", "setting": "Wfs1^ΔExon8 mice [1]; male mice, 60-s swim without platform, Fig. 4d", "result": "no impact of the PRE-084 was noted"},
      {"measurement": "object exploration during session 2", "setting": "Wfs1^ΔExon8 mice [2]; 0.3 mg/kg ip 30 min before session with two identical objects, Fig. 3a", "result": "failed to affect object exploration"},
      {"measurement": "exploration for the novel object in session 3", "setting": "Wfs1^ΔExon8 mice [2]; 0.3 mg/kg ip, Fig. 3b", "result": "attenuated the deficit of exploration for the novel object"},
      {"measurement": "spontaneous alternation", "setting": "Wfs1^ΔExon8 mice [3]", "result": "very significant recovery of spontaneous alternation"},
      {"measurement": "maze exploration (total number of arm entries)", "setting": "Wfs1^ΔExon8 mice [4]; Fig. 7a", "result": "no impact was noted"},
      {"measurement": "time spent in open arms", "setting": "Wfs1^ΔExon8 mice [4]; Fig. 7b", "result": "slightly increased"},
      {"measurement": "time per visit in open arms", "setting": "Wfs1^ΔExon8 mice [4]; Fig. 7c", "result": "significantly increased"},
      {"measurement": "number of crossing", "setting": "Wfs1^ΔExon8 mice [5]; Fig. 6a", "result": "slightly reduced"},
      {"measurement": "time spent in the light compartment", "setting": "Wfs1^ΔExon8 mice [5]; Fig. 6b", "result": "increased up to the levels of Wfs1^WT mice"},
      {"measurement": "time per visit (light compartment)", "setting": "Wfs1^ΔExon8 mice [5]; Fig. 6c", "result": "increased up to the levels of Wfs1^WT mice"},
      {"measurement": "escape latency", "setting": "Wfs1^ΔExon8 mice [6]; Fig. 5b", "result": "significantly reduced"},
      {"measurement": "step-through latency deficit", "setting": "Wfs1^ΔExon8 mice [6]; compared to V-treated Wfs1^WT mice, Fig. 5a", "result": "very significant for V-treated Wfs1^ΔExon8 mice but not for PRE-084-treated Wfs1^ΔExon8 mice"},
      {"measurement": "hyperlocomotor response", "setting": "Wfs1ab^KO larvae; at 3 and 10 µM in the bath", "result": "down to the WT line mobility"},
      {"measurement": "hyperlocomotor response", "setting": "Wfs1ab^KO larvae; between 0.1 and 10 µM in the bath, 4 dpf to 5 dpf", "result": "concentration-dependent decrease of the hyperlocomotor response"}
    ]}
  ]
}
